Source: PMC12143796, “Virtual screening of a random tripeptide library for easily prepared inhibitors of insect chitinolytic enzymes” (The Cell Surface, 2025)
Each block holds one molecule with its values, some of them ahead of it. Residues, ends and D or L forms follow the SMILES beside them.

Key:
Type in all cases: biochemical
OfChtI = biological target: T1, OfChtI (Ostrinia furnacalis, UniProt Q2V6H4); experiment: fluorescence assay of released 4-methylumbelliferone; conditions: read-out: % inhibition at 1 mM
T1 construct: PDB id is that of the docking structure
T1 sequence (Q2V6H4 19-407): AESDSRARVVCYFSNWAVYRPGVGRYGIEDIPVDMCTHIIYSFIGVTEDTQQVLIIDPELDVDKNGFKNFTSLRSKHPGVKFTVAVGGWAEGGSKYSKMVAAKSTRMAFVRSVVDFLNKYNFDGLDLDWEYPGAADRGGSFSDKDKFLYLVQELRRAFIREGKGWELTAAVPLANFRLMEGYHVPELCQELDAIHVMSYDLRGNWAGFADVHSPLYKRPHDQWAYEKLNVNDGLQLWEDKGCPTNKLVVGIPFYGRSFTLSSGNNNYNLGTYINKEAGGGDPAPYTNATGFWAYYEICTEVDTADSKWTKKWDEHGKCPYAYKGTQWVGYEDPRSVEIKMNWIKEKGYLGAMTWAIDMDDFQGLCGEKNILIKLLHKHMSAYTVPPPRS

OfHex1 [1] = biological target: T2, OfHex1 (Ostrinia furnacalis, UniProt Q06GJ0); experiment: as above; conditions: read-out: % inhibition at 1 mM
T2 construct: PDB id is that of the docking structure
T2 sequence (Q06GJ0 23-594): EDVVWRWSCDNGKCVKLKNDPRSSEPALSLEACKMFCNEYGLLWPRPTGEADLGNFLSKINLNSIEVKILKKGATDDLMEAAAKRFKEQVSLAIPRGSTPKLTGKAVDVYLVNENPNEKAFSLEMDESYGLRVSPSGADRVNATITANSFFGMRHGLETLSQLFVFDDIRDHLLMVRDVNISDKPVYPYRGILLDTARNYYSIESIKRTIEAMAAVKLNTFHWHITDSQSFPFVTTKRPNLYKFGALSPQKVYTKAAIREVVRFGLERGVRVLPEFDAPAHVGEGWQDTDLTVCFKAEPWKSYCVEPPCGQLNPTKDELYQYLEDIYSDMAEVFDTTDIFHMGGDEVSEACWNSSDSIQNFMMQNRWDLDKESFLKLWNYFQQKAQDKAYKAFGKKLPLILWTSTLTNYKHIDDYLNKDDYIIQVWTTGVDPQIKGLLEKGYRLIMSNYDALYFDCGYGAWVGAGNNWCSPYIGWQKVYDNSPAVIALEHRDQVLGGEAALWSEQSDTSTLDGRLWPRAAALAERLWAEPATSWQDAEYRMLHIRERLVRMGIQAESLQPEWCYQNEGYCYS

OfChi-h = biological target: T3, OfChi-h (Ostrinia furnacalis, UniProt Q4AE59); experiment: as above; conditions: read-out: % inhibition at 1 mM
T3 construct: PDB id is that of the docking structure
T3 sequence (Q4AE59 18-553): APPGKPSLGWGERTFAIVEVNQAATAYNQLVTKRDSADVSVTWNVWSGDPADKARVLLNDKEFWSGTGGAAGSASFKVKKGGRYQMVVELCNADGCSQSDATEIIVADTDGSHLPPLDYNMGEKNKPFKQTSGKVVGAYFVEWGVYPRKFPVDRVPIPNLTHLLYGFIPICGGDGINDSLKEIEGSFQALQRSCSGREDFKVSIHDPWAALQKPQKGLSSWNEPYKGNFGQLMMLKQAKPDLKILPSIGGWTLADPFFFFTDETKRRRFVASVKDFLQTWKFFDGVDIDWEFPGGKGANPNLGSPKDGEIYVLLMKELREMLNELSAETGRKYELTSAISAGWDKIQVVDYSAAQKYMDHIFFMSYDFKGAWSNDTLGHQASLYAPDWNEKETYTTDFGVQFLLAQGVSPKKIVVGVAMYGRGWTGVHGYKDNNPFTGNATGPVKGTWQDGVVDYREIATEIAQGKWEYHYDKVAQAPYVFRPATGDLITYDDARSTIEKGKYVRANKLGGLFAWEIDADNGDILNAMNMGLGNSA

OfHex1 [2] = biological target: T2, OfHex1; experiment: fluorescence of released 4-methylumbelliferone; conditions: 10 μM substrate, 20 mM sodium phosphate pH 6.0, 30 °C, 30 min

SMILES: NC(=O)CC[C@H](N)C(=O)N[C@@H](Cc1c[nH]c2ccccc12)C(=O)N[C@@H](Cc1c[nH]c2ccccc12)C(=O)O [QWW] (H-Gln-Trp-Trp-OH)
inhibition at 1000 µM (OfChtI): 55.3%

SMILES: N[C@@H](Cc1ccc(O)cc1)C(=O)N[C@@H](Cc1ccccc1)C(=O)N1CCC[C@H]1C(=O)O [YFP] (H-Tyr-Phe-Pro-OH)
inhibition at 1000 µM (OfHex1 [1]): < 50%
inhibition at 1000 µM (OfChtI): < 50%
inhibition at 1000 µM (OfChi-h): 14.8%

SMILES: N[C@@H](Cc1ccccc1)C(=O)N1CCC[C@H]1C(=O)N[C@@H](Cc1ccc(O)cc1)C(=O)O [FPY] (H-Phe-Pro-Tyr-OH)
inhibition at 1000 µM (OfHex1 [1]): < 50%
inhibition at 1000 µM (OfChtI): < 50%

fluorescence of released 4-methylumbelliferone (OfHex1 [2]): the substrate for OfHex1 was MU-GlcNAc
SMILES: CC(=O)N[C@H]1[C@H](Oc2ccc3c(C)cc(=O)oc3c2)O[C@H](CO)[C@@H](O)[C@@H]1O [MU-GlcNAc]
